In patent publication EP1140919B1, “1,4-DISUBSTITUTED CYCLOHEXANE DERIVATIVES FOR THE TREATMENT OF DEPRESSION” (Wyeth, priority 1999, dated 2000):

Key:
human 5-HT1A receptor = target: T1, human 5-HT1A receptor (Homo sapiens, UniProt P08908); assay: 5-HT1A receptor binding assay with [3H]8-OH-DPAT on CHO cell membranes; conditions: @ 1000 nM, 5-HT1A.CHO cell membranes
T1 construct: expressed in transfected cells
T1 sequence (P08908 1-422): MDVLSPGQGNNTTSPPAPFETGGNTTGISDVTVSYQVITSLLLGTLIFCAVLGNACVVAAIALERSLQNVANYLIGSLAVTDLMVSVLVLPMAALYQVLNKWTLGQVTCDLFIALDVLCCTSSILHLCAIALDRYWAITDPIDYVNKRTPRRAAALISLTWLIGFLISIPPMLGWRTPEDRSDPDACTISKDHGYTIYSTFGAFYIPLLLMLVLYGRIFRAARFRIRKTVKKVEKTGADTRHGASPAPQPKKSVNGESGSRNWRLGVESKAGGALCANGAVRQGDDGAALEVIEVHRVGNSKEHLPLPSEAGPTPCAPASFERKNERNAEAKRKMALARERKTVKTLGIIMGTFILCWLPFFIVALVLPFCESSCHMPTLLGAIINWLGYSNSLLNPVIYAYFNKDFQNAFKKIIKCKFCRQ
Protocol: The PCR cloning of the human 5-HT1A receptor subtype from a human genomic library has been described previously by Chanda et al., Mol. Pharmacol., 43:516 (1993). A stable Chinese hamster ovary cell line expressing the human 5-HT1A receptor subtype (5-HT1A.CHO cells) was employed throughout this study. Cells were maintained in DMEM supplemented with 10% fetal calf serum, non-essential amino acids and penicillin/ streptomycin.
Cells were grown to 95-100% confluency as a monolayer before membranes were harvested for binding studies. Cells were gently scraped from the culture plates, transferred to centrifuge tubes, and washed twice by centrifugation (2000 rpm for 10 min., 4°C) in buffer (50 mM Tris; pH 7.5). The resulting pellets were aliquoted and maintained at -80•C. On the day of assay, the cells were thawed on ice, and resuspended in buffer. Studies were conducted using [^3H]8-OH-DPAT as the radioligand. The binding assay was performed in 96 well microtiter plates in a final total volume of 250 µL of buffer. Comparison experiments werc performed by using 7 concentrations of unlabelled drug and a final ligand concentration of 1.5 nM. Nonspecific binding was determined in the presence of 10 µM 5HT. Saturation analysis was conducted by using [^3H]8-OH-DPAT at concentrations ranging from 0.3-30 nM. […]

serotonin transporter = target: T2, serotonin transporter (Rattus norvegicus, UniProt P31652); assay: Serotonin transporter binding assay with 3H-paroxetine on frontal cortical membranes; set-up: species or system male Sprague-Dawley rats
T2 construct: frontal cortical membranes prepared from male Sprague-Dawley rats; from tissue; host or cells: frontal cortex of male Sprague-Dawley rats (membranes)
Protocol: A protocol similar to that used by Cheetham et al., Neuropharmacol., 32:737 (1993) was used to determine the affinity of compounds for the serotonin transporter. Briefly, frontal cortical membranes prepared from male Sprague-Dawley rats were incubated with ^3H-paroxetine (0.1 nM) for 60 min at 25°C. All tubes also contained either vehicle, test compound (one to eight concentrations), or a saturating concentration of fluoxetine (10 µM) to define […]. All reactions were terminated by the addition of ice cold Tris buffer followed by rapid filtration using a Tom Tech filtration device to separate bound from free ^3H-paroxetine. Bound radioactivity was quantitated using a Wallac 1205 Beta Plate® counter. Nonlinear regression analysis was used to determine IC50 values which were converted to Ki values using the method set forth in Cheng and Prusoff, Biochem. Pharmacol., 22:3099 (1973) ([…].

T2 sequence (P31652 whole entry): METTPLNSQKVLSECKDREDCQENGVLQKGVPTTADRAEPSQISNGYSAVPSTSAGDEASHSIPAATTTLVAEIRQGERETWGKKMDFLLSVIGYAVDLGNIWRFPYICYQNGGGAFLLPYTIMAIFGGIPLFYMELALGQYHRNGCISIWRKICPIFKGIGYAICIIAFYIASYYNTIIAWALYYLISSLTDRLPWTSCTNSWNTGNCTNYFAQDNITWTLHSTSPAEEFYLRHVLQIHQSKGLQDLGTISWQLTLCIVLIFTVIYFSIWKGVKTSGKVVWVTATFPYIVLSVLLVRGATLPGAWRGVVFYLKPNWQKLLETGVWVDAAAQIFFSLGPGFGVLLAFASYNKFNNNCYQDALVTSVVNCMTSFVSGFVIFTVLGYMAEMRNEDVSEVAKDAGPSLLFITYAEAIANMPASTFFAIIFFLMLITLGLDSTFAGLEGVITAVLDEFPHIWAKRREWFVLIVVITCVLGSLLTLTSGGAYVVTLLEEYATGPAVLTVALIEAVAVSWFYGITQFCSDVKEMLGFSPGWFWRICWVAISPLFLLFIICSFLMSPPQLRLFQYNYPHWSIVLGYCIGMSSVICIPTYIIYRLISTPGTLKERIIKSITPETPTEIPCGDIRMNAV

SMILES	5-HT1A (Ki, nM) (human 5-HT1A receptor) [% @ 1000 nM]	Ki (serotonin transporter) [nM]	ST (Ki, nM,) (serotonin transporter; @ 100 nM, 3H-paroxetine, rat frontal cortical membranes) [% @ 100 nM]
COc1ccsc1C1=CCN([C@H]2CC[C@@H](c3c[nH]c4ccc(F)cc43)CC2)CC1 [Example 1, 5-Fluoro-3-{(1,4-cis)-4-[4-(3-methoxy-thiophen-2-yl)-3,6-dihydro-2H-pyridin-1-yl]-cyclohexyl}-1H-indole]	48	2.5	
COc1ccsc1C1=CCN([C@H]2CC[C@H](c3c[nH]c4ccc(F)cc43)CC2)CC1 [Example 2, 5-Fluoro-3-{(1,4-trans)-4-[4-(3-methoxy-thiophen-2-yl)-3,6-dihydro-2H-pyridin-1-yl]-cyclohexyl}-1H-indole]			18
